US9566334B2, “Combinations of a PI3K/AKT inhibitor compound with an HER3/EGFR inhibitor compound and use thereof in the treatment of a hyperproliferative disorder” (THE GENERAL HOSPITAL CORPORATION, priority 2012, dated 2017)
“Also recorded” adds a separate entry of the source.

Columns and labels:
[1] = tested on: HCC70 and MDA-MB-468 cells; experiment: Five days proliferation analysis (Crystal Violet / CellTiter-Glo); assay type: cell-based; settings: 5 days; MEHD7945A 10 nM, GDC-0068 and GDC-0941 1 uM
Procedure: Whether the combination of MEHD7945A with GDC-0068 or GDC-0941 would result in enhanced antiproliferative activity was tested in both HCC70 and MDA-MB-468 cells.
(§1) For proliferation, 5×10^5 cells were seeded in 96-well plates and treated with the indicated concentrations of GDC-0068, GDC-0941, and/or MEHD7945A. After 5 days, cells were fixed and stained with Crystal Violet. Cell proliferation was also analyzed with CellTiter-Glo Luminescent Cell Viability Assay (Promega) as described by the manufacturer. For heregulin (HRG, Peprotech) and epidermal growth factor (EGF, Peprotech)-induced proliferation, 5×10^5 cells were treated with GDC-0068, GDC-0941, and/or MEHD7945A in the presence of 4 ng/ml of ligands for 5 days and then stained with Crystal Violet.

EGFR and HER3 = experiment: CEER analysis of active and total EGFR and HER3 in xenograft tumors; assay type: in vivo, mice; settings: for active and total levels of HER3 and EGFR (CEER): TNBC PDX, tumors harvested 2 h after the last drug administration
Procedure: The levels of EGFR and HER3 expression/activation in HCC70 tumors collected at the end of the experiments (day 39) was investigated. […] Frozen tissue was analyzed by Cooperative, Enhanced, Enzyme Immunoreactive (CEER), a platform that utilizes reverse-phase detection of nanogram quantities of protein.
The levels of pathway protein expression and their activation in xenografts were determined by CEER. (Kim et al., ASCO Annual Meeting abstract P2-06-13, (2010)) CEER utilizes the formation of unique immuno-complexes between capture antibodies printed on a nitrocellulose microarray surface, the target molecule in cell lysate reacted with the slide, and two independent detector-antibodies. One of the detector-antibody is conjugated to glucose oxidase, and the other is conjugated to horseradish peroxidase. Target detection (expressed as computational unit, CU) requires the presence of both detector-antibodies and the enzyme channeling event between glucose oxidase and horseradish peroxidase will not occur unless both antibodies are in close proximity.

[2] = tested on: MDA-MB-468- and HCC70-derived xenografts; experiment: Cell line-derived xenograft tumor growth; assay type: in vivo, mice; settings: MDA-MB-468 and HCC70 xenografts; p less than 0.01 combination vs monotherapy
Procedure: To expand these findings in vivo, the efficacy of MEHD7945A was tested in combination with either the Akt or PI3K inhibitor in both MDA-MB-468- and HCC70-derived xenografts.
(§2) For cell line-derived xenograft studies, mice were injected subcutaneously with 1×10^7 HCC70 or MDA-MB-468 suspended in 150 μL culture media/Matrigel (BD Biosciences) in a 4:1 ratio. One μmol/L of 17β-estradiol was supplemented in the mouse drinking water as described (Garcia-Garcia et al., Clinical cancer research: an official journal of the American Association for Cancer Research 18, 2603 (2012)).
(§3) Once tumors reached an average volume of about 150-250 mm^3, mice were randomized into treatment arms, with n=7-11 tumors/group. GDC-0068 [40 mg/kg] or GDC-0941 [75 mg/kg] were dissolved in 0.5% methylcellulose and 0.2% Tween-80 (MCT) solution and administered once daily via oral gavage. […] Tumors were measured by digital caliper over the entire treatment period. Tumor volume was determined using the formula: (length×width^2)×(π/6). Tumor volumes are plotted as means±SEM.

[3] = tested on: MDA-MB-468, HCC70 and patient-derived xenograft; experiment: In vivo activity in three different models of TNBC; parameters: species or system mice; settings: three TNBC models; MEHD7945A 10 mg/kg i.p. twice weekly, GDC-0068 40 mg/kg, GDC-0941 75 mg/kg oral once daily
Procedure: (§4) Several TNBC cell lines were treated with MEHD7945A, a dual-action antibody that targets both EGFR and HER3, AKT inhibitor GDC-0068, and pan-PI3K inhibitor GDC -0941. Cell viability was measured by CellTiter-Glo and Crystal Violet. Both cell line- and patient -derived xenograft models of TNBC were treated with MEHD7945A, GDC-0068, GDC-0941, or the combination of MEHD7945A with either GDC-0068 or GDC-0941. Tumor size and histology were examined. Protein expression was measured by Western blot, Mass Spectometry, CEER and immunohistochemistry.
To test the activity of these compounds in vivo, three different models of TNBC were used: two cell line (MDA-MB-468 and HCC70)-based and a patient-derived xenograft.
All mouse studies were conducted through institutional Animal Care and Use Committee (IACUC) approved animal protocols in accordance with institutional guidelines. Six-week-old female athymic nude mice were purchased from Charles River Laboratories and housed in air-filtered laminar flow cabinets with a 12-hour light cycle and food and water ad libitum.
as §2
(§5) For patient-derived xenograft (PDX) studies, tumors were subcutaneously implanted in 6-week old female athymic nude mice. Upon xenograft growth, tumor tissue was reimplanted into recipient mice, which were randomized upon implant growth. For the collection of circulating tumor cells (CTCs), tumors were implanted into the mammary pad of athymic nude mice.
as §3

[4] = tested on: patient-derived xenografts (PDX) of TNBC; experiment: Patient-derived xenograft tumor growth; assay type: in vivo, mice; settings: MEHD7945A 10 mg/Kg twice weekly, GDC-0941 75 mg/Kg daily, GDC-0068 40 mg/kg daily
Procedure: The activity of the same treatments in patient-derived xenografts (PDX) of TNBC was then tested.
as §5, §3

[5] = tested on: EGFR, HER3 and downstream signaling pathways; experiment: Western blot of EGFR, HER3 and downstream signaling in cells; assay type: cell-based; settings: 24 hours, 1 uM; for expression of HER3: HCC70 and MDA-MB-468 cells; for activation of EGFR and HER3: HCC70 cells
Procedure: HCC70 and MDA-MB-468 TNBC cell lines, characterized by elevated levels of EGFR and loss of PTEN expression, were treated with GDC-0068, GDC-0941, MEHD7945A, and the combinations of these inhibitors.
Cells were washed with ice-cold phosphate buffered saline (PBS) and scraped into ice-cold RIPA lysis buffer (Cell Signaling) supplemented with phosphatase inhibitor cocktails (Complete Mini, and PhosphoStop (Roche)). Lysates were cleared by centrifugation at 13,000 rpm for 10 minutes at 4° C., supernatants removed and assayed for protein concentration using the Pierce BCA Protein Assay Kit (Thermo Scientific). Thirty-five micrograms of total lysate was resolved on NuPAGE 4-12% Bis-Tris gels (Life Technologies) and electrophoretically transferred to Immobilon transfer membranes (Millipore). Membranes were blocked for 1 hour in 5% nonfat dry milk in TBS-Tween and then hybridized using the following primary antibodies in 5% bovine serum albumin (BSA) TBS-Tween: phospho-Akt (Ser473), phospho-Akt (Thr308), Akt, phospho-S6 (Ser(240/4), phospho-S6 (Ser235/6), S6, phospho-PRAS40 (Thr246), PRAS40, phospho-Erk (Thr202/Tyr204), Erk, phospho-EGFR (Tyr1068), EGFR, phospho-HER3 (Tyr1289), HER3 (1:500-1:1000, Cell Signaling). Beta-actin was used as a loading control (1:5000, Sigma), also in 5% BSA TBS-Tween. Mouse and rabbit horseradish peroxidase (HRP)-conjugated secondary antibodies (1:50,000, Amersham Biosciences) were diluted in 2% nonfat dry milk in TBS-Tween. Protein—antibody complexes were detected by chemiluminescence with SuperSignal West FemtoChemiluminescent Substrate (Thermo Scientific) and images were captured with a G-BOX camera system.

TNBC cell lines = experiment: Cell viability by CellTiter-Glo and Crystal Violet; assay type: cell-based; settings: across all TNBC cell lines; read-out: IC50s, inhibition of cell viability
Procedure: as §4, §1

[6] = HCC70 tumors collected at day 39

CC(C)NC[C@@H](C(=O)N1CCN(c2ncnc3c2[C@H](C)C[C@H]3O)CC1)c1ccc(Cl)cc1 [GDC-0068]
inhibition of cell proliferation/viability [1]: varying sensitivity | EGFR and HER3 expression and phosphorylation (CEER) (EGFR and HER3; [6]): overall increase of both EGFR and HER3 expression and phosphorylation | total EGFR receptor levels (CEER) (EGFR and HER3; [6]): no changes in the total receptor levels were observed | active and total levels of HER3 and EGFR (CEER) (EGFR and HER3): increased; also recorded: lower ability to induce EGFR and HER3 phosphorylation | tumor growth inhibition [2]: responded only modestly | tumor growth [3]: variable delay in tumor growth | tumor growth [4]: superior antitumor activity compared with GDC-0941 | expression of HER3 [5]: increased expression of HER3 | activation of EGFR and HER3 [5]: activation of both EGFR and HER3 | IC50 (TNBC cell lines): ≥ 170 nM

CS(=O)(=O)N1CCN(Cc2cc3nc(-c4cccc5[nH]ncc45)nc(N4CCOCC4)c3s2)CC1 [GDC-0941, 4-(2-(1H-indazol-4-yl)-6-((4-(methylsulfonyl)piperazin-1-yl)methyl)thieno[3,2-d]pyrimidin-4-yl)morpholine]
inhibition of cell proliferation/viability [1]: varying sensitivity | EGFR and HER3 expression and phosphorylation (CEER) (EGFR and HER3; [6]): overall increase of both EGFR and HER3 expression and phosphorylation | active and total levels of HER3 and EGFR (CEER) (EGFR and HER3): increased | tumor growth inhibition [2]: responded only modestly | tumor growth [3]: variable delay in tumor growth | tumor growth [4]: delayed tumor growth | expression of HER3 [5]: increased expression of HER3 | activation of EGFR and HER3 [5]: activation of both EGFR and HER3 | IC50 (TNBC cell lines): ≥ 170 nM
